Assay results from patent publication US6716987B1, “Derivatives of benzofuran or benzodioxazole compounds” (Kyowa Hakko Kogyo Co., Ltd., priority 1995, dated 2004).

Tests used:
[1] = test system: cAMP-specific phosphodiesterase (PDE IV); assay: Inhibition of the PDE IV enzyme derived from a dog trachea; type: biochemical; conditions: test compound 10^−6 M; PDE IV from dog tracheal smooth muscle; substrate cAMP 1 μM
Procedure, shortened: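 Enzyme purified from dog tracheal smooth muscle; [3H]cAMP substrate at 1 μM final in 50 mM BES pH 7.2, 1 mM MgCl2, 0.1 mg/ml soybean trypsin inhibitor, 30° C for 10–30 min, 1.7% DMSO final. After HCl stop, product converted to adenosine by 5′-nucleotidase, separated on DEAE-Sephadex and scintillation-counted.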

With `COc1ccc(C(=O)Nc2c(Cl)cncc2Cl)c2c1OC(C)(C)C=C2` [Compound 121, 5-(3,5-Dichloro-4-pyridylaminocarbonyl)-8-methoxy-2,2-dimethylbenzopyran] the “Enzyme Inhibitory Activity (%, 10^−6 M)” value [1] was 85% and the melting point was 174 to 178 °C.

In the case of `COc1ccc(C(=O)Cc2c(Cl)cncc2Cl)c2c1CC1(CCCC1)O2` [Compound 132, 7-[2-(3,5-Dichloro-4-pyridyl)-1-oxoethyl]-4-methoxy-spiro[2,3-dihydrobenzofuran-2,1′-cyclopentane]], the “Enzyme Inhibitory Activity (%, 10^−6 M)” value [1] is reported as 66% and the melting point is reported as 70 to 72 °C.

In the case of `COc1ccc(C(=O)Cc2ccncc2)c2c1OCC2C` (racemic) [Compound 104, (±)-7-Methoxy-3-methyl-4-[1-oxo-2-(4-pyridyl)ethyl]-2,3-dihydrobenzofuran], the “Enzyme Inhibitory Activity (%, 10^−6 M)” value [1] is reported as 48% and the melting point is reported as 111 to 117 °C.

For `COc1ccc(C(=O)Nc2c(Cl)cncc2Cl)c2c1OCC2C(C)C` (racemic) [Compound 4, (±)-4-[(3,5-Dichloro-4-pyridyl)aminocarbonyl]-7-methoxy-3-(2-propyl)-2,3-dihydrobenzofuran], the “Enzyme Inhibitory Activity (%, 10^−6 M)” value [1] was 53% and the melting point was 239 to 241 °C.

For `CCCCc1cc2c(C(=O)Nc3c(Cl)cncc3Cl)ccc(OC)c2o1` [Compound 36, 2-Butyl-4-(3,5-dichloropyridin-4-ylaminocarbonyl)-7-methoxybenzofuran], the “Enzyme Inhibitory Activity (%, 10^−6 M)” value [1] was 87% and the melting point was 160 to 164 °C.

With `COc1ccc(C(=O)Nc2c(Cl)cncc2Cl)c2c1OCC2CC(=O)NCc1ccc(F)cc1` (racemic) [Compound 29, (±)-4-[(3,5-Dichloro-4-pyridyl)aminocarbonyl]-3-[(4-fluorobenzyl)aminocarbonyl]methyl-7-methoxy-2,3-dihydro-benzofuran] the “Enzyme Inhibitory Activity (%, 10^−6 M)” value [1] was 85% and the melting point was 287 °C.

For `CCOC(=O)CC1COc2c(OC)ccc(C(=O)Nc3c(Cl)cncc3Cl)c21` (racemic) [Compound 5, (±)-4-[(3,5-Dichloro-4-pyridyl)aminocarbonyl]-3-ethoxycarbonylmethyl-7-methoxy-2,3-dihydrobenzofuran], the “Enzyme Inhibitory Activity (%, 10^−6 M)” value [1] was 85% and the melting point was 186 to 188 °C.

In the case of `COc1ccc(C(=O)Nc2c(Cl)cncc2Cl)c2c1OCC2CC(=O)Nc1c(Cl)cncc1Cl` (racemic) [Compound 32, (±)-4-[(3,5-Dichloro-4-pyridyl)aminocarbonyl]-3-[(3,5-dichloro-4-pyridyl)aminocarbonyl]methyl-7-methoxy-2,3-dihydrobenzofuran], the “Enzyme Inhibitory Activity (%, 10^−6 M)” value [1] is reported as 81% and the melting point is reported as > 300 °C.

With `COc1ccc(C(=O)Cc2c(Cl)cncc2Cl)c2c1OC1(CCCC1)C2` [Compound 99, 4-[2-(3,5-Dichloro-4-pyridyl)-1-oxoethyl]-7-methoxy-spiro[2,3-dihydrobenzofuran-2,1′-cyclopentane]] the “Enzyme Inhibitory Activity (%, 10^−6 M)” value [1] was 91% and the melting point was 159 to 162 °C.

With `COc1ccc(CCc2c(Cl)cncc2Cl)c2c1OC(C)(C)C2` [Compound 45, 4-[2-(3,5-Dichloro-4-pyridyl)ethyl]-7-methoxy-2,2-dimethyl-2,3-dihydrobenzofuran] the “Enzyme Inhibitory Activity (%, 10^−6 M)” value [1] was 74% and the melting point was 128 to 133 °C.

In the case of `COc1ccc(C(=O)Nc2c(Cl)cncc2Cl)c2c(-c3ccccc3)coc12` [Compound 42, 4-[(3,5-Dichloro-4-pyridyl)aminocarbonyl]-7-methoxy-3-phenylbenzofuran], the “Enzyme Inhibitory Activity (%, 10^−6 M)” value [1] is reported as 73% and the melting point is reported as 177 to 179 °C.

With `COc1ccc(C(=Cc2ccncc2)c2ccccc2)c2c1OCC2C` (racemic) [Compound 80, (±)-7-Methoxy-3-methyl-4-[1-phenyl-2-(4-pyridyl)ethenyl]-2,3-dihydrobenzofuran] the “Enzyme Inhibitory Activity (%, 10^−6 M)” value [1] was 17% and the melting point was 103 to 105.5 °C.

With `COc1ccc(C(=O)Nc2c(Cl)cncc2Cl)c2c1OCC2CC(=O)OCc1ccccc1` (racemic) [Compound 13, (±)-3-Benzyloxycarbonylmethyl-4-[(3,5-Dichloro-4-pyridyl)aminocarbonyl]-7-methoxy-2,3-dihydrobenzofuran] the “Enzyme Inhibitory Activity (%, 10^−6 M)” value [1] was 94% and the melting point was 198 to 205 °C.
